Tests used:
Assay in all cases: relative viability (nuclei count vs DMSO), 5 days (fraction); higher = more cells survive
Idelalisib + Decitabine = compound: CC[C@H](Nc1ncnc2[nH]cnc12)c1nc2cccc(F)c2c(=O)n1-c1ccccc1 [Idelalisib] + Nc1ncn([C@H]2C[C@H](O)[C@@H](CO)O2)c(=O)n1 [Decitabine] (partner 2 µM)
Outline: (§1)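 One day after seeding in 1536-well plates, lung cancer cell lines were dosed by pin tool. Dosing was either single-drug or a fixed anchor-drug dose plus five library-drug doses (not always all listed) in √10 steps. After 5 days, nuclei were stained in one fix-and-stain step and counted on 4× images, and relative viability is the nuclei count of treated wells over that of vehicle wells, given as the median of duplicate plates.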

Idelalisib + AZD7762 = compound: CC[C@H](Nc1ncnc2[nH]cnc12)c1nc2cccc(F)c2c(=O)n1-c1ccccc1 [Idelalisib] + NC(=O)Nc1cc(-c2cccc(F)c2)sc1C(=O)N[C@H]1CCCNC1 [AZD7762] (partner 0.2 µM)
Outline: as §1

Idelalisib + Lapatinib = compound: CC[C@H](Nc1ncnc2[nH]cnc12)c1nc2cccc(F)c2c(=O)n1-c1ccccc1 [Idelalisib] + CS(=O)(=O)CCNCc1ccc(-c2ccc3ncnc(Nc4ccc(OCc5cccc(F)c5)c(Cl)c4)c3c2)o1 [Lapatinib] (partner 2 µM)
Outline: as §1

Pemetrexed + Navitoclax = compound: Nc1nc2[nH]cc(CCc3ccc(C(=O)N[C@@H](CCC(=O)O)C(=O)O)cc3)c2c(=O)[nH]1 [Pemetrexed] + CC1(C)CCC(c2ccc(Cl)cc2)=C(CN2CCN(c3ccc(C(=O)NS(=O)(=O)c4ccc(N[C@H](CCN5CCOCC5)CSc5ccccc5)c(S(=O)(=O)C(F)(F)F)c4)cc3)CC2)C1 [Navitoclax] (partner 0.5 µM)
Outline: as §1

EMC-BAC-2
relative viability (Idelalisib + Decitabine; first compound 0.04 µM): 1
relative viability (Idelalisib + Decitabine; first compound 0.1265 µM): 1.03
relative viability (Idelalisib + Decitabine; first compound 0.4 µM): 0.942
relative viability (Idelalisib + Decitabine; first compound 1.265 µM): 1.05
relative viability (Idelalisib + Decitabine; first compound 4 µM): 0.941
relative viability (Idelalisib + AZD7762; first compound 0.04 µM): 1.08
relative viability (Idelalisib + AZD7762; first compound 0.1265 µM): 1.1
relative viability (Idelalisib + AZD7762; first compound 0.4 µM): 1.02
relative viability (Idelalisib + AZD7762; first compound 1.265 µM): 1.11
relative viability (Idelalisib + AZD7762; first compound 4 µM): 1.08
relative viability (Idelalisib + Lapatinib; first compound 0.04 µM): 0.91
relative viability (Idelalisib + Lapatinib; first compound 0.1265 µM): 0.953
relative viability (Idelalisib + Lapatinib; first compound 0.4 µM): 0.827
relative viability (Idelalisib + Lapatinib; first compound 1.265 µM): 0.905
relative viability (Idelalisib + Lapatinib; first compound 4 µM): 0.833
relative viability (Pemetrexed + Navitoclax; first compound 0.002 µM): 1.14
relative viability (Pemetrexed + Navitoclax; first compound 0.006325 µM): 1.09
relative viability (Pemetrexed + Navitoclax; first compound 0.02 µM): 1.21
relative viability (Pemetrexed + Navitoclax; first compound 0.06325 µM): 1.2
relative viability (Pemetrexed + Navitoclax; first compound 0.2 µM): 1.09

HOP-62
relative viability (Idelalisib + Decitabine; first compound 0.04 µM): 0.277
relative viability (Idelalisib + Decitabine; first compound 0.1265 µM): 0.199
relative viability (Idelalisib + Decitabine; first compound 0.4 µM): 0.262
relative viability (Idelalisib + Decitabine; first compound 1.265 µM): 0.231
relative viability (Idelalisib + Decitabine; first compound 4 µM): 0.235
relative viability (Idelalisib + AZD7762; first compound 0.04 µM): 0.731
relative viability (Idelalisib + AZD7762; first compound 0.1265 µM): 0.706
relative viability (Idelalisib + AZD7762; first compound 0.4 µM): 0.398
relative viability (Idelalisib + AZD7762; first compound 1.265 µM): 0.304
relative viability (Idelalisib + AZD7762; first compound 4 µM): 0.545
relative viability (Idelalisib + Lapatinib; first compound 0.04 µM): 1
relative viability (Idelalisib + Lapatinib; first compound 0.1265 µM): 0.912
relative viability (Idelalisib + Lapatinib; first compound 1.265 µM): 1.47
relative viability (Idelalisib + Lapatinib; first compound 4 µM): 1.06
relative viability (Pemetrexed + Navitoclax; first compound 0.002 µM): 1.03
relative viability (Pemetrexed + Navitoclax; first compound 0.006325 µM): 1.01
relative viability (Pemetrexed + Navitoclax; first compound 0.02 µM): 1.19
relative viability (Pemetrexed + Navitoclax; first compound 0.06325 µM): 0.906
relative viability (Pemetrexed + Navitoclax; first compound 0.2 µM): 0.894

NCI-H1793
relative viability (Idelalisib + Decitabine; first compound 0.04 µM): 0.404
relative viability (Idelalisib + Decitabine; first compound 0.1265 µM): 0.398
relative viability (Idelalisib + Decitabine; first compound 1.265 µM): 0.454
relative viability (Idelalisib + Decitabine; first compound 4 µM): 0.38
relative viability (Idelalisib + AZD7762; first compound 0.04 µM): 0.758
relative viability (Idelalisib + AZD7762; first compound 0.1265 µM): 0.449
relative viability (Idelalisib + AZD7762; first compound 1.265 µM): 0.14
relative viability (Idelalisib + AZD7762; first compound 4 µM): 0.326
relative viability (Idelalisib + Lapatinib; first compound 0.04 µM): 0.664
relative viability (Idelalisib + Lapatinib; first compound 0.1265 µM): 0.635
relative viability (Idelalisib + Lapatinib; first compound 0.4 µM): 0.406
relative viability (Idelalisib + Lapatinib; first compound 1.265 µM): 0.583
relative viability (Idelalisib + Lapatinib; first compound 4 µM): 0.651
relative viability (Pemetrexed + Navitoclax; first compound 0.002 µM): 0.616
relative viability (Pemetrexed + Navitoclax; first compound 0.006325 µM): 0.41
relative viability (Pemetrexed + Navitoclax; first compound 0.02 µM): 0.55
relative viability (Pemetrexed + Navitoclax; first compound 0.06325 µM): 0.421
relative viability (Pemetrexed + Navitoclax; first compound 0.2 µM): 0.416

NCI-H1355
relative viability (Idelalisib + Decitabine; first compound 0.04 µM): 0.346
relative viability (Idelalisib + Decitabine; first compound 0.1265 µM): 0.326
relative viability (Idelalisib + Decitabine; first compound 0.4 µM): 0.364
relative viability (Idelalisib + Decitabine; first compound 1.265 µM): 0.369
relative viability (Idelalisib + Decitabine; first compound 4 µM): 0.324
relative viability (Idelalisib + AZD7762; first compound 0.04 µM): 0.817
relative viability (Idelalisib + AZD7762; first compound 0.1265 µM): 0.786
relative viability (Idelalisib + AZD7762; first compound 0.4 µM): 0.625
relative viability (Idelalisib + AZD7762; first compound 1.265 µM): 0.523
relative viability (Idelalisib + AZD7762; first compound 4 µM): 0.703
relative viability (Idelalisib + Lapatinib; first compound 0.04 µM): 1.06
relative viability (Idelalisib + Lapatinib; first compound 0.1265 µM): 1.1
relative viability (Idelalisib + Lapatinib; first compound 0.4 µM): 0.751
relative viability (Idelalisib + Lapatinib; first compound 1.265 µM): 0.972
relative viability (Idelalisib + Lapatinib; first compound 4 µM): 0.888
relative viability (Pemetrexed + Navitoclax; first compound 0.002 µM): 0.86
relative viability (Pemetrexed + Navitoclax; first compound 0.006325 µM): 0.885
relative viability (Pemetrexed + Navitoclax; first compound 0.02 µM): 0.951
relative viability (Pemetrexed + Navitoclax; first compound 0.06325 µM): 0.942
relative viability (Pemetrexed + Navitoclax; first compound 0.2 µM): 0.872

From the supplement of paper PMC10307832
